Values of other authors, collected in publication PMC7527728, “CPSF6-Dependent Targeting of Speckle-Associated Domains Distinguishes Primate from Nonprimate Lentiviral Integration” (mBio, 2020).

Key:
[1] = tested on: HIV-1 capsid hexamers; design: method as in PMID 25518861; settings: more efficiently than the NTD
[2] = tested on: N74D capsid nanotubes; settings: in vitro
Excerpt: (§1) The 5.2% reduction in genic HIV-1 integration targeting in Jurkat CKD cells was noticeably less than the 22.1% reduction in CKO cells (compare Fig. 4A and Fig. 3A). While the reason for this difference is unclear, it seemed possible that the residual level of CPSF6 protein that persisted in CKD cells (Fig. 2D) could be a contributing factor. We accordingly next mapped integration sites of N74D and A77V capsid mutant viruses in Jurkat T cells. N74D and A77V capsid nanotubes bound CPSF6 ∼5% and 30%, respectively, as efficiently as WT capsid complexes in vitro ([43]).

[3] = tested on: A77V capsid nanotubes; settings: in vitro, as efficiently as WT capsid
Excerpt: as §1

Row | Substance | binding to capsid hexamers relative to NTD [1] | CPSF6 binding relative to WT capsid complexes [2] [%] | CPSF6 binding relative to WT capsid complexes [3] [%]
1 | CPSF6 peptide: CPSF6 peptide binding HIV-1 capsid hexamers, ref 45 | approximately 10 -fold | – | –
2 | CPSF6: cleavage and polyadenylation specificity factor 6 | – | ~5 | ~30
